Data as given in patent publication US20250230165A1, “HETEROCYCLIC COMPOUNDS FOR USE IN THE TREATMENT OF CANCER” (ARTIOS PHARMA LIMITED, priority 2021, published 2025).

molecular target: T1, Human Polθ polymerase domain (aa1820-2590) (Homo sapiens, UniProt O75417); assay: Polθ Polymerase Domain Kinact/KI Assay (PicoGreen); assay type: biochemical; settings: 0.8 nM Polθ, 100 nM DNA substrate, kobs vs [I] fit for 2-step covalent inhibitor
T1 construct: Human Polθ polymerase domain (aa1820-2590) was expressed in E. coli; made in house; host or cells: E. coli
T1 sequence (O75417 1820-2590): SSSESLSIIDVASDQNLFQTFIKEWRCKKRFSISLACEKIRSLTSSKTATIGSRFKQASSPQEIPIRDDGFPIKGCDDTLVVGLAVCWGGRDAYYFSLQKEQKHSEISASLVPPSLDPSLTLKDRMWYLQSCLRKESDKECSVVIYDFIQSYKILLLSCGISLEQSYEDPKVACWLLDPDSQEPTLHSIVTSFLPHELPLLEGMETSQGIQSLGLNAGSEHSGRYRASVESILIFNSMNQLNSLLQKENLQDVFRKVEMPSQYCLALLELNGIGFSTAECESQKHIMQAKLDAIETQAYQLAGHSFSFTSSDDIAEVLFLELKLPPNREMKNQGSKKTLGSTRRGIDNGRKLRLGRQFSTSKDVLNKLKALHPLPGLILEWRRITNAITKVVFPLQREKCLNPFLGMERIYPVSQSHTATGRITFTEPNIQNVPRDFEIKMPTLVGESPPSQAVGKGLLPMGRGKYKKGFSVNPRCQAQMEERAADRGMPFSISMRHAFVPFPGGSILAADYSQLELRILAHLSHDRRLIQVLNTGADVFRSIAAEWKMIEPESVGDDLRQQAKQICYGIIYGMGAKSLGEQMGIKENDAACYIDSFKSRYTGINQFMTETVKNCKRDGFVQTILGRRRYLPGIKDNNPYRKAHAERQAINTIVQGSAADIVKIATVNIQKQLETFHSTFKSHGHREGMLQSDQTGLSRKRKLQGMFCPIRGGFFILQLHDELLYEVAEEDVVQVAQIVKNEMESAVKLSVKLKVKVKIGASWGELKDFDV
Summary of the method: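 PicoGreen fluorescence read-out of primer extension; progress curves per inhibitor concentration fitted for kobs, then kobs vs [I] fitted to a two-step covalent model to give Kinact and KI. Conditions: 0.8 nM enzyme, 100 nM DNA substrate, […].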

Kinact/Kl	SMILES
2.97e+06 M⁻¹ s⁻¹	C=CC(=O)N1Cc2cc(CN3C[C@H]4CC(=O)N(c5cc(C(F)(F)F)cc(C)n5)[C@@H]4C(=O)N(C)c4cccc(Cl)c43)cnc2[C@@H]1CC#N (racemic) [Example 292a, 2-((S/R)-6-acryloyl-3-(((3aR,11aS)-6-chloro-10-methyl-1-(6-methyl-4-(trifluoromethyl)pyridin-2-yl)-2,11-dioxo-1,2,3,3a,4,10,11,11a-octahydro-5H-benzo[b]pyrrolo[2,3-f][1,4]diazocin-5-yl)methyl)-6,7-dihydro-5H-pyrrolo[3,4-b]pyridin-7-yl)acetonitrile]
1.52e+06 M⁻¹ s⁻¹	C=CC(=O)N1C[C@@H](n2cnc(CN3C[C@H]4CC(=O)N(c5cc(C(F)(F)F)cc(C)n5)[C@@H]4C(=O)N(C)c4cccc(C)c43)c2)[C@@H](F)C1 (single isomer, unassigned) [Example 326b]
1.58e+06 M⁻¹ s⁻¹	C=CC(=O)N1CCN(CCCN2C[C@H]3CC(=O)N(c4cc(C(F)(F)F)cc(C)n4)[C@@H]3C(=O)N(C)c3cccc(C)c32)CC1C(F)(F)F (mixture of isomers) [Example 265b, (3aR,11aS)-5-(3-((R/S)-4-acryloyl-3-(trifluoromethyl)piperazin-1-yl)propyl)-6,10-dimethyl-1-(6-methyl-4-(trifluoromethyl)pyridin-2-yl)-1,3a,4,5,10,11a-hexahydro-2H-benzo[b]pyrrolo[2,3-f][1,4]diazocine-2,11(3H)-dione]
1.31e+06 M⁻¹ s⁻¹	C=CC(=O)N1CC(N2CCC[C@H](CN3C[C@H]4CC(=O)N(c5cc(C(F)(F)F)cc(C)n5)[C@@H]4C(=O)N(C)c4cccc(F)c43)C2)C1 (racemic) [Example 225b, (3aR,11aS)-5-(((S/R)-1-(1-acryloylazetidin-3-yl)piperidin-3-yl)methyl)-6-fluoro-10-methyl-1-(6-methyl-4-(trifluoromethyl)pyridin-2-yl)-1,3a,4,5,10,11a-hexahydro-2H-benzo[b] pyrrolo[2,3-f] [1,4]diazocine-2,11(3H)-dione]

Second part, the compound before the results:

SMILES	Kinact/Kl
C=CC(=O)N1CCN2CCN(CCN3C[C@H]4CC(=O)N(c5cc(C(F)(F)F)cc(C)n5)[C@@H]4C(=O)N(C)c4cccc(F)c43)C(=O)[C@H]2C1 [Example 46, (3aR,11aS)-5-(2-((R)-8-acryloyl-1-oxooctahydro-2H-pyrazino[1,2-a]pyrazin-2-yl)ethyl)-6-fluoro-10-methyl-1-(6-methyl-4-(trifluoromethyl)pyridin-2-yl)-1,3a,4,5,10,11a-hexahydro-2H-benzo [b]pyrrolo[2,3-f][1,4] diazocine-2,11(3H)-dione]	480000 M⁻¹ s⁻¹
Cc1cc(C(F)(F)F)cc(N2C(=O)C[C@@H]3CN(CCCC(F)CNC(=O)/C=C/CN(C)C)c4c(Cl)cccc4N(C)C(=O)[C@H]32)n1 (stereo partly drawn) [Example 295, (E)-N-(5-((3aR,11aS)-6-chloro-10-methyl-1-(6-methyl-4-(trifluoromethyl)pyridin-2-yl)-2,11-dioxo-1,2,3,3a,4,10,11,11a-octahydro-5H-benzo[b]pyrrolo[2,3-f][1,4]diazocin-5-yl)-2-fluoropentyl)-4-(dimethylamino)but-2-enamide]	1.62e+06 M⁻¹ s⁻¹
C=CC(=O)N1CC(n2cnc(CN3C[C@H]4CC(=O)N(c5cc(C(F)(F)F)cc(C)n5)[C@@H]4C(=O)N(C)c4cccc(F)c43)n2)C1 [Example 123, (3aR,11aS)-5-((1-(1-acryloylazetidin-3-yl)-1H-1,2,4-triazol-3-yl)methyl)-6-fluoro-10-methyl-1-(6-methyl-4-(trifluoromethyl)pyridin-2-yl)-1,3a,4,5,10,11a-hexahydro-2H-benzo[b]pyrrolo[2,3-f][1,4]diazocine-2,11(3H)-dione]	270000 M⁻¹ s⁻¹
C=C(CN(C)C)C(=O)N1CCN(C(=O)CCN2C[C@H]3CC(=O)N(c4cc(C(F)(F)F)cc(C)n4)[C@@H]3C(=O)N(C)c3cccc(Cl)c32)CC1 [Example 86, (3aR,11aS)-6-chloro-5-(3-(4-(2-((dimethylamino)methyl)acryloyl)piperazin-1-yl)-3-oxopropyl)-10-methyl-1-(6-methyl-4-(trifluoromethyl)pyridin-2-yl)-1,3a,4,5,10,11a-hexahydro-2H-benzo[b]pyrrolo[2,3-f][1,4]diazocine-2,11(3H)-dione]	3.49e+06 M⁻¹ s⁻¹
C=CC(=O)N1Cc2cc(CN3C[C@H]4CC(=O)N(c5cc(C(F)(F)F)cc(C)n5)[C@@H]4C(=O)N(C)c4cccc(C)c43)cnc2[C@H]1COC (racemic) [Example 234, (3aR,11aS)-5-(((S/R)-6-acryloyl-7-(methoxymethyl)-6,7-dihydro-5H-pyrrolo[3,4-b]pyridin-3-yl)methyl)-6,10-dimethyl-1-(6-methyl-4-(trifluoromethyl)pyridin-2-yl)-1,3a,4,5,10,11a-hexahydro-2H-benzo[b]pyrrolo[2,3-f][1,4]diazocine-2,11(3H)-dione]	5.85e+06 M⁻¹ s⁻¹
C=C(CN(C)C)C(=O)N1CC[C@H](COCCN2C[C@H]3CC(=O)N(c4cc(C(F)(F)F)cc(C)n4)[C@@H]3C(=O)N(C)c3cccc(C)c32)C1 [Example 181, (3aR,11aS)-5-(2-(((S)-1-(2-((dimeth-ylamino)methyl)-acryloyl)pyrrolidin-3-yl)methoxy)eth-yl)-6,10-dimethyl-1-(6-methyl-4-(trifluoromethyl)-pyridin-2-yl)-1,3a,4,5,10,11a-hexahydro-2H-benzo[b]pyrrolo [2,3-f][1,4]diazo-cine-2,11(3H)-dione]	2.26e+06 M⁻¹ s⁻¹
C=CC(=O)N1CC[C@]12CCN(CCN1C[C@H]3CC(=O)N(c4cc(C(F)(F)F)cc(C)n4)[C@@H]3C(=O)N(C)c3cccc(F)c31)C2 (racemic) [Example 21a, (3aR,11aS)-5-(2-((S/R)-1-acryloyl-1,6-diazaspiro[3.4]octan-6-yl)ethyl)-6-fluoro-10-methyl-1-(6-methyl-4-(trifluoromethyl)pyridin-2-yl)-1,3a,4,5,10,11a-hexahydro-2H-benzo[b]pyrrolo[2,3-f][1,4]diazocine-2, 11(3H)-dione]	54000 M⁻¹ s⁻¹
C=CC(=O)N1C[C@H]2CN(CCN3C[C@H]4CC(=O)N(c5cc(C(F)(F)F)cc(C)n5)[C@@H]4C(=O)N(C)c4cccc(F)c43)CC[C@H]2C1 (single isomer, unassigned) [Example 25b]	250000 M⁻¹ s⁻¹
C#CC(=O)N1CC(F)(COCCN2C[C@H]3CC(=O)N(c4cc(C(F)(F)F)cc(C)n4)[C@@H]3C(=O)N(C)c3cccc(Cl)c32)C1 [Example 303, (3aR,11aS)-6-chloro-5-(2-((3-fluoro-1-propioloylazetidin-3-yl)methoxy)ethyl)-10-methyl-1-(6-methyl-4-(trifluoromethyl)pyridin-2-yl)-1,3a,4,5,10,11a-hexahydro-2H-benzo[b]pyrrolo[2,3-f][1,4]diazocine-2,11(3H)-dione]	1.8e+06 M⁻¹ s⁻¹
C#CC(=O)NC12CC(CN3C[C@H]4CC(=O)N(c5cc(C(F)(F)F)cc(C)n5)[C@@H]4C(=O)N(C)c4cccc(C)c43)(C1)C2 [Example 200, N-(3-(((3aR,11aS)-6,10-dimethyl-1-(6-methyl-4-(tri-fluoromethyl)pyri-din-2-yl)-2,11-dioxo-1,2,3,3a,4, 10,11,11a-octa-hydro-5H-benzo[b]pyrrolo[2,3-f][1,4]diazocin-5-yl)-methyl)bicyclo [1.1.1]pentan-1-yl)propiolamide]	690000 M⁻¹ s⁻¹
Cc1cc(C(F)(F)F)cc(N2C(=O)C[C@@H]3CN(Cc4ccc([C@H]5CCCN5C(=O)/C=C/CN(C)C)cc4)c4c(F)cccc4N(C)C(=O)[C@H]32)n1 (racemic) [Example 170a, (3aR,11aS)-5-(4-((R/S)-1-((E)-4-(dimethylamino)-but-2-enoyl)pyr-rolidin-2-yl)benz-yl)-6-fluoro-10-methyl-1-(6-methyl-4-(tri-fluoromethyl)-pyridin-2-yl)-1,3a,4,5,10,11a-hexahydro-2H-benzo[b]pyrrolo [2,3-f][1,4]diazo-cine-2,11(3H)-dione]	880000 M⁻¹ s⁻¹
Cc1cc(C(F)(F)F)cc(N2C(=O)C[C@@H]3CN(CCCCC4CN(C(=O)/C(Cl)=C/CN(C)C)C4)c4c(C)cccc4N(C)C(=O)[C@H]32)n1 [Example 254, (3aR,11aS)-5-(4-(1-((Z)-2-chloro-4-(dimethylamino)but-2-enoyl)azetidin-3-yl)butyl)-6,10-dimethyl-1-(6-methyl-4-(trifluoromethyl)pyridin-2-yl)-1,3a,4,5,10,11a-hexahydro-2H-benzo[b]pyrrolo[2,3-f][1,4]diazocine-2,11(3H)-dione]	2.13e+06 M⁻¹ s⁻¹
